Assay results from DBAASP.
In brackets after ≈: the same amount, converted by molar mass. Values belong to the compound of their own block, whether it stands above or below them.

How the values were obtained:
Experiment in all cases: ≥ marks a high value that may be exact or a test limit, other limits are often not marked, values filed in µg/mL are converted to µM
[1] = system: Candida parapsilosis
[2] = system: Zymomonas mobilis ATCC 10988
[3] = system: Escherichia coli DH5alpha
[4] = system: Bacillus subtilis DELTA
[5] = system: Cronobacter sakazakii ATCC BAA-894
[6] = system: Cronobacter sakazakii DSM 4485
[7] = system: Staphylococcus aureus Newman
[8] = system: Pseudomonas fluorescens NCIMB 9046
[9] = system: Staphylococcus aureus RN4220
[10] = system: Escherichia coli NCIMB 11843
[11] = system: Staphylococcus aureus NCTC 8325-4
[12] = system: Cronobacter muytjensii ATCC 51329
[13] = system: Klebsiella pneumoniae NCIMB 13218
[14] = system: Cronobacter sakazakii DPC 6440
[15] = system: Pseudomonas aeruginosa ATCC 27853
[16] = system: Staphylococcus aureus RF122
[17] = system: Salmonella enterica subsp. enterica serovar Typhimurium LT2
[18] = system: Staphylococcus aureus SA113
[19] = system: Pseudomonas aeruginosa PAO1
[20] = system: Escherichia coli C600
[21] = system: Staphylococcus aureus 209P
[22] = system: Pseudomonas aeruginosa CGMCC 1.860
[23] = system: Staphylococcus epidermidis
[24] = system: Staphylococcus epidermidis CICC 23664
[25] = system: Pseudomonas aeruginosa 0108
[26] = system: Erwinia amylovora PMV 6076
[27] = system: Xanthomonas campestris pv. Vesicatoria 2133-2
[28] = system: Pseudomonas syringae pv. syringae EPS 94
[29] = system: Streptococcus sobrinus ATCC 6715
[30] = system: Streptococcus mutans UA159
[31] = system: Streptococcus sanguinis ATCC 10556
[32] = system: Salmonella enterica subsp. enterica serovar Typhimurium ATCC 14028
[33] = system: Klebsiella aerogenes ATCC 13048
[34] = system: Staphylococcus aureus ATCC 29213
[35] = system: Escherichia coli ATCC 25922
[36] = system: Bacillus cereus ATCC 11778

Compound: CC(C)C[C@H](NC(=O)[C@H](C)NC(=O)[C@H](CCC(=O)O)NC(=O)[C@H](CC(N)=O)NC(=O)[C@H](CC(C)C)NC(=O)[C@@H](N)C(C)C)C(=O)N[C@@H](CC(C)C)C(=O)N[C@@H](CCCN=C(N)N)C(=O)O [VLNEALLR]
- MIC [5]: ≥ 1250 µM
- MIC [6]: ≥ 1250 µM
- MIC [7]: ≥ 1250 µM
- MIC [8]: ≥ 2500 µM
- MIC [9]: ≥ 1250 µM
- MIC [10]: ≥ 2500 µM
- MIC [11]: ≥ 1250 µM
- MIC [12]: ≥ 625 µM
- MIC [13]: ≥ 2500 µM
- MIC [14]: ≥ 625 µM
- MIC [15]: 32 µM (≈ 29.7 µg/mL)
- MIC [16]: ≥ 1250 µM
- MIC [17]: ≥ 1250 µM
- MIC [18]: ≥ 1250 µM

Compound: CC(C)[C@@H]1NC(=O)CNC(=O)[C@H](CCCN=C(N)N)NC(=O)[C@H](CCCN=C(N)N)NC(=O)[C@H](CCCN=C(N)N)NC(=O)[C@H](C)NC(=O)[C@H](Cc2ccc(O)cc2)NC(=O)[C@H](C(C)C)NC(=O)[C@@H](NC(=O)[C@H](Cc2c[nH]c3ccccc23)NC(=O)[C@@H](N)CCCN=C(N)N)CSSC[C@@H](C(=O)N[C@@H](Cc2c[nH]c3ccccc23)C(=O)O)NC(=O)[C@H](CCCN=C(N)N)NC(=O)[C@H](CCCN=C(N)N)NC(=O)[C@H](Cc2ccc(O)cc2)NC(=O)[C@H](CCCN=C(N)N)NC1=O [RWCVYARRRGVRYRRCW]
- MIC [19]: 50 µM (≈ 117 µg/mL)
- MIC [20]: 3.13 µM (≈ 7.33 µg/mL)
- MIC [21]: 3.13 µM (≈ 7.33 µg/mL)

Compound: CC[C@H](C)[C@H](NC(=O)[C@H](CCCCN)NC(=O)[C@H](CCCCN)NC(=O)[C@H](Cc1ccccc1)NC(=O)[C@H](CC(C)C)NC(=O)[C@H](CCCCN)NC(=O)[C@@H](N)CCCCN)C(=O)N[C@@H](CC(C)C)C(=O)N[C@@H](CCCCN)C(=O)N[C@@H](Cc1ccc(O)cc1)C(=O)N[C@@H](CC(C)C)C(=O)N[C@@H](C)C(=O)NCC(=O)N1CCC[C@H]1C(=O)N[C@@H](C)C(=O)N[C@@H](CCCCN)C(=O)N[C@@H](Cc1ccccc1)C(=O)N[C@@H](CC(C)C)C(=O)N[C@@H](Cc1cnc[nH]1)C(=O)N[C@@H](CO)C(=O)N[C@@H](C)C(=O)N[C@@H](CCCCN)C(=O)N[C@@H](CCCCN)C(=O)N[C@@H](CC(=O)O)C(=O)N[C@@H](CCC(=O)O)C(=O)N[C@@H](CC(C)C)C(=O)O [KKLFKKILKYLAGPAKFLHSAKKDEL]
- MIC [26]: 3.54 µM (≈ 10.7 µg/mL)
- MIC [27]: 6.12 µM (≈ 18.5 µg/mL)
- MIC [28]: 8.66 µM (≈ 26.1 µg/mL)

Compound: NCCCC[C@H](NC(=O)CNC(=O)[C@H](Cc1ccccc1)NC(=O)[C@H](CCCCN)NC(=O)[C@H](Cc1ccccc1)NC(=O)[C@H](Cc1ccccc1)NC(=O)[C@H](CCCCN)NC(=O)[C@H](CCCCN)NC(=O)[C@H](Cc1ccccc1)NC(=O)[C@H](Cc1ccccc1)NC(=O)[C@H](CCCCN)NC(=O)CNC(=O)[C@H](Cc1c[nH]c2ccccc12)NC(=O)CN)C(=O)O [GWGKFFKKFFKFGK]
- MIC [29]: 9.13 µM (≈ 16 µg/mL)
- MIC [30]: 9.13 µM (≈ 16 µg/mL)
- MIC [31]: 9.13 µM (≈ 16 µg/mL)

Compound: CC(C)C[C@H](NC(=O)[C@H](CC(C)C)NC(=O)[C@H](CC(N)=O)NC(=O)[C@H](CCC(=O)O)NC(=O)[C@H](CC(N)=O)NC(=O)[C@H](CC(C)C)NC(=O)[C@@H](N)C(C)C)C(=O)N[C@@H](C)C(=O)O [VLNENLLA]
- MIC [5]: ≥ 2500 µM
- MIC [6]: ≥ 2500 µM
- MIC [7]: ≥ 1250 µM
- MIC [8]: ≥ 2500 µM
- MIC [9]: ≥ 1250 µM
- MIC [10]: ≥ 2500 µM
- MIC [11]: ≥ 1250 µM
- MIC [12]: ≥ 2500 µM
- MIC [13]: ≥ 2500 µM
- MIC [14]: ≥ 2500 µM
- MIC [15]: 32 µM (≈ 28.3 µg/mL)
- MIC [16]: ≥ 1250 µM
- MIC [17]: ≥ 1250 µM
- MIC [18]: ≥ 1250 µM

Compound: CC[C@H](C)[C@H](NC(=O)[C@H](CCCN=C(N)N)NC(=O)[C@H](CCCCN)NC(=O)[C@H](Cc1ccccc1)NC(C)=O)C(=O)N[C@H](C(=O)N[C@@H](CCC(N)=O)C(=O)N[C@@H](CC(C)C)C(=O)N[C@@H](CC(C)C)C(=O)N[C@@H](CCCCN)C(=O)N[C@@H](CCCCN)C(=O)N[C@@H](CC(C)C)C(=O)N[C@@H](CC(C)C)C(=O)N[C@@H](CCCN=C(N)N)C(N)=O)C(C)C [FKRIVQLLKKLLR]
- MIC [19]: 1.81 µM (≈ 3.07 µg/mL)
- MIC [1]: 24.2 µM (≈ 41 µg/mL)
- MIC [2]: 3.02 µM (≈ 5.12 µg/mL)
- MIC [3]: ≥ 60.4 µM
- MIC [4]: 6.04 µM (≈ 10.2 µg/mL)

Results, then the compound that gave them:

- MIC [1]: 24.1 µM (≈ 30 µg/mL)
- MIC [2]: 8.04 µM (≈ 9.99 µg/mL)
- MIC [3]: ≥ 322 µM
- MIC [4]: ≥ 32.2 µM
Compound: CC[C@H](C)[C@H](NC(=O)[C@H](Cc1ccccc1)NC(=O)[C@H](CCCCN)NC(=O)[C@H](CC(C)C)NC(=O)[C@H](CC(C)C)NC(=O)[C@@H](N)CCCCN)C(=O)N[C@@H](CCCCN)C(=O)N[C@@H](CCCCN)C(=O)N[C@@H](CC(C)C)C(=O)N[C@@H](CC(C)C)C(N)=O [KLLKFIKKLL]

- MIC [22]: 12.5 µM (≈ 20.3 µg/mL)
- MIC [23]: 12.5 µM (≈ 20.3 µg/mL)
- MIC [24]: 3.12 µM (≈ 5.07 µg/mL)
- MIC [25]: 25 µM (≈ 40.6 µg/mL)
Compound: CC[C@H](C)[C@H](N)C(=O)N[C@@H](CCCCN)C(=O)N[C@@H](CCCCN)C(=O)N[C@H](C(=O)N[C@@H](CC(C)C)C(=O)N[C@@H](CO)C(=O)N[C@@H](CCCCN)C(=O)N[C@H](C(=O)N[C@@H](CCCCN)C(=O)N[C@@H](CCCCN)C(=O)N[C@@H](Cc1c[nH]c2ccccc12)C(=O)N[C@@H](CC(C)C)C(=O)N[C@@H](CCCCN)C(N)=O)[C@@H](C)CC)[C@@H](C)CC [IKKILSKIKKWLK]

- MIC [29]: ≥ 279 µM
- MIC [30]: ≥ 279 µM
- MIC [31]: ≥ 279 µM
Compound: CC(C)[C@H](NC(=O)[C@H](CCCCN)NC(=O)[C@H](C)NC(=O)[C@H](C)NC(=O)[C@H](CCCCN)NC(=O)[C@H](CCCCN)NC(=O)[C@H](Cc1ccccc1)NC(=O)[C@H](Cc1ccccc1)NC(=O)[C@H](CCCCN)NC(=O)CNC(=O)[C@H](Cc1c[nH]c2ccccc12)NC(=O)CN)C(=O)NCC(=O)N[C@@H](CCCCN)C(=O)N[C@@H](CCCCN)C(=O)N[C@H](C(=O)NCC(=O)O)C(C)C [GWGKFFKKAAKVGKKVG]

- MIC [32]: > 67.8 µM
- MIC [33]: ≥ 67.8 µM
- MIC [34]: > 67.8 µM
- MIC [35]: > 67.8 µM
- MIC [36]: ≥ 67.8 µM
Compound: CC[C@H](C)[C@H](N)C(=O)N[C@@H](CC(C)C)C(=O)NCC(=O)N[C@@H](CCCCN)C(=O)N[C@H](C(=O)N[C@@H](Cc1c[nH]c2ccccc12)C(=O)N[C@@H](CCC(=O)O)C(=O)NCC(=O)N[C@H](C(=O)N[C@@H](CCCCN)C(=O)N[C@@H](CO)C(=O)N[C@@H](CC(C)C)C(=O)N[C@@H](Cc1ccccc1)C(N)=O)C(C)C)C(C)C [ILGKVWEGVKSLF]

- MIC [22]: 25 µM (≈ 40.6 µg/mL)
- MIC [23]: 12.5 µM (≈ 20.3 µg/mL)
- MIC [24]: 12.5 µM (≈ 20.3 µg/mL)
- MIC [25]: 25 µM (≈ 40.6 µg/mL)
Compound: CC[C@H](C)[C@H](N)C(=O)N[C@@H](CCCCN)C(=O)N[C@@H](CCCCN)C(=O)N[C@H](C(=O)N[C@@H](CC(C)C)C(=O)N[C@@H](CO)C(=O)N[C@@H](CCCCN)C(=O)N[C@H](C(=O)N[C@@H](CCCCN)C(=O)N[C@@H](CCCCN)C(=O)N[C@@H](CC(C)C)C(=O)N[C@@H](Cc1c[nH]c2ccccc12)C(=O)N[C@@H](CCCCN)C(N)=O)[C@@H](C)CC)[C@@H](C)CC [IKKILSKIKKLWK]
